Results from PMC4287973, “Tumor cell-specific inhibition of MYC function using small molecule inhibitors of the HUWE1 ubiquitin ligase” (EMBO Molecular Medicine, 2014).
Where a SMILES comes first, the peptide text is derived from it. The star is where a group is joined. Cbz = O=C(OCc1ccccc1)*

System: MIZ1
Assay: HUWE1-mediated decrease in MIZ1 levels in transfected HeLa cells
Format: cell-based
Details: MG132 10 µM for 6 hrs
Description: Neither depletion nor chemical inhibition of HUWE1 affected the expression of any member of the MXD family of repressor proteins that antagonize transactivation by MYC or nuclear localization of MYC (Supplementary Figs S9A and S10). […] In contrast, ectopic expression of HUWE1 had only moderate effects on steady-state levels of MYC, consistent with the results obtained in response to depletion of HUWE1 (Fig6A). As a result, ectopic expression of HUWE1 increased the relative amount of MYC that is not bound to MIZ1 (Fig6B). […] Consistently, depletion or chemical inhibition of HUWE1 increased steady-state levels of MIZ1 in colon carcinoma cells (Fig6D and E). Similarly, depletion or inhibition of HUWE1 increased levels of MIZ1 in mouse keratinocytes (Supplementary Fig S11B and C), in which HUWE1 is known to degrade MIZ1 (Inoue et al, [2013]).
Peter et al. HUWE1 inhibition
B. Immunofluorescence staining of MYC upon HUWE1 inhibition. Ls174T cells were treated […]
Supplementary Figure S11: Characterization of HUWE1 effects on MIZ1 stability.
A, Effect of proteasome inhibition on HUWE1-induced downregulation of MIZ1. HeLa cells were transfected with plasmids encoding MIZ1 and HA-HUWE1. Cells were treated with BI8622 (20 µM) for 24 hrs, DMSO served as solvent control. MG132 was used at 10 µM for 6 hrs. Lysates were analyzed for expression of HUWE1 and MIZ1, Vinculin was used as […]

## CC(C)C[C@@H](C=O)NC(=O)[C@H](CC(C)C)NC(=O)[C@H](CC(C)C)NC(=O)OCc1ccccc1 [MG132] (Cbz-Leu-Leu-Leu-aldehyde)
  HUWE1-mediated decrease in MIZ1 levels: blocked
